Measured values published in US12382888B2, “Compositions and methods for modulating immunity in plants” (Boyce Thompson Institute for Plant Research, Inc., priority 2013, dated 2025).
“Also recorded” adds a separate entry of the source.

What was measured:
[1] = test system: Pseudomonas syringae pv. tabaci; test: Resistance of tobacco to Pseudomonas syringae pv. tabaci (bacterial growth); conditions: leaves treated with 250 μM SA alone
[2] = test system: Pseudomonas syringae pv. tomato DC3000 (Pst); test: Resistance of Arabidopsis to Pseudomonas syringae pv. tomato DC3000 (bacterial growth); assay type: in vivo; conditions: for resistance to virulent Pst DC3000 (bacterial growth): leaf syringe infiltration 0.3 μM 24 hours prior to inoculation, 3 dpi; for resistance to virulent Pst DC3000: leaf treatment at the concentration tested
[3] = test system: asthma in a mouse model system; conditions: cited from earlier work
C. elegans = conditions: cited from earlier work; for sex pheromone activity: mixture of three ascarosides
PR-1 [4] = test: PR-1 expression in Arabidopsis leaves (semi-quantitative PCR / qRT-PCR); conditions: for PR-1 expression in Arabidopsis: leaf pretreatment by syringe infiltration, 0.01, 0.3, and 10 μM; for PR-1 expression, ascaroside alone: leaf syringe infiltration (0.01 or 0.3 μM), semi-quantitative PCR
[5] = test system: ovalbumin-specific T-helper cell responses; conditions: mice; cited from earlier work
PDF1.2 = PDF1.2 expression in Arabidopsis leaves (semi-quantitative PCR / qRT-PCR); conditions: for PDF1.2 expression in Arabidopsis: leaf pretreatment by syringe infiltration, 0.01, 0.3, and 10 μM; for PDF1.2 expression, ascaroside alone: leaf syringe infiltration (0.01 or 0.3 μM), semi-quantitative PCR
PR-1 [6] = test: PR-1 protein/transcript induction in tobacco leaves (immunoblot, RT-PCR); conditions: low concentrations of ascaroside
Procedure: Four-weeks old tobacco plants were syringe-infiltrated with buffer, SA, or a mixture of SA (50 μM or 500 μM) and decreasing concentration of ascr #18 (10, 0.3, and 0.01 μM). PR-1 was assayed 48 hours after treatment by immunoblot using anti-PR-1 antibody.
PR-1 expression was analyzed 48 hp SA treatment.
To determine whether ascr #18 affects levels of the prototypic SA-responsive PR-1 gene/protein, tobacco plants were treated with varying concentrations of ascr #18 in the presence or absence of SA (FIG. 2).

Botrytis cinerea = test: Resistance of tomato to Botrytis cinerea B05.01 (detached leaflet assay); assay type: in vivo; conditions: tomato cv. M82; root immersion 0.01 μM 48 hours before
M. incognita = test: Arabidopsis root knot nematode infection assay; assay type: in vivo, Meloidogyne incognita; conditions: higher concentrations than 10 nM
Heterodera schachtii = test: Arabidopsis cyst nematode infection assay; assay type: in vivo; conditions: higher concentrations than 10 nM
[7] = ascaroside at low concentrations in combination with SA (50 μM)
[8] = higher concentration of ascaroside with SA (50 μM)

O=C(O)c1ccccc1O [SA, salicylic acid, reference compound]
virulent P.t. growth [1]: reduced levels of virulent P.t. growth
protection against Pst ([2]; 50 μM SA alone, leaf infiltration): low level of protection

CC1O[C@@H](O[C@H](C)CCCCC(=O)O)C(O)C[C@H]1O (stereo partly shown) [ascr #1]
development of asthma [3]: strongly suppressed the development of asthma

CC(=O)CC[C@@H](C)O[C@@H]1OC(C)[C@H](O)CC1O (stereo partly shown) [ascr #2, reference compound]
sex pheromone activity (C. elegans): active at low nanomolar concentrations

CC1O[C@@H](O[C@H](C)CCCC/C=C/C(=O)O)C(O)C[C@H]1O (stereo partly shown) [ascr #3]
response of hermaphrodites (C. elegans): repels hermaphrodites
sex pheromone activity (C. elegans): active at low nanomolar concentrations
SA-induced PR-1 expression (PR-1 [4]; [7]): enhances PR-1 expression induced by SA
SA-induced PR-1 expression (PR-1 [4]; [8]): reduces the SA-induced PR-1 expression
PR-1 expression in Arabidopsis (PR-1 [4]): +
PR-1 expression, ascaroside alone (PR-1 [4]): induces PR-1 expression; also recorded: induced expression; also recorded: altered
ovalbumin-specific T-helper cell responses [5]: no significant effect
PDF1.2 expression in Arabidopsis (PDF1.2): +
PDF1.2 expression, ascaroside alone (PDF1.2): induces PDF1.2 expression; also recorded: induced expression; also recorded: altered
resistance to virulent Pst DC3000 (bacterial growth) [2]: enhanced resistance
PR-1 expression in tobacco cv. W38 (PR-1 [6]): did not significantly increase PR-1 expression

CC1O[C@@H](O[C@H](C)CC/C=C/C(=O)O)C(O)C[C@H]1O (stereo partly shown) [ascr #7]
ovalbumin-specific T-helper cell responses [5]: strongly suppresses
development of asthma [3]: strongly suppressed the development of asthma

CC1O[C@@H](O[C@H](C)CC/C=C/C(=O)Nc2ccc(C(=O)O)cc2)C(O)C[C@H]1O (stereo partly shown) [ascr #8]
sex pheromone activity (C. elegans): active at low nanomolar concentrations

C[C@H](CCC(=O)O)O[C@@H]1O[C@@H](C)[C@H](O)C[C@H]1O [ascr #9]
SA-induced PR-1 expression (PR-1 [4]; [7]): enhances PR-1 expression induced by SA
SA-induced PR-1 expression (PR-1 [4]; [8]): reduces the SA-induced PR-1 expression
PR-1 expression in Arabidopsis (PR-1 [4]): +
PR-1 expression, ascaroside alone (PR-1 [4]): induces PR-1 expression; also recorded: induced expression; also recorded: altered
PDF1.2 expression in Arabidopsis (PDF1.2): +
PDF1.2 expression, ascaroside alone (PDF1.2): induces PDF1.2 expression; also recorded: induced expression; also recorded: altered
resistance to virulent Pst DC3000 [2]: did not significantly enhance resistance
PR-1 expression in tobacco cv. W38 (PR-1 [6]): did not significantly increase PR-1 expression

CC1O[C@@H](O[C@H](C)CCCCCCC(=O)O)C(O)C[C@H]1O (stereo partly shown) [ascr #10]
response of hermaphrodites (C. elegans): strongly attracts hermaphrodites
SA-induced PR-1 expression (PR-1 [4]; [7]): enhances PR-1 expression induced by SA
PR-1 expression, ascaroside alone (PR-1 [4]): induces PR-1 expression; also recorded: altered
PDF1.2 expression, ascaroside alone (PDF1.2): induces PDF1.2 expression; also recorded: altered
resistance to virulent Pst DC3000 [2]: did not significantly enhance resistance
PR-1 expression in tobacco cv. W38 (PR-1 [6]): did not significantly increase PR-1 expression

CC1O[C@@H](O[C@H](C)CCCCCCCCC(=O)NCCO)C(O)C[C@H]1O (stereo partly shown) [easc #18]
resistance to B. cinerea (lesion size 3 dpi) (Botrytis cinerea): enhanced resistance
resistance to virulent Pst DC3000 (bacterial growth) [2]: enhances resistance

CC1O[C@@H](O[C@H](C)CCCC/C=C/C(=O)O)C(O)C[C@H]1OC(=O)c1ccc(O)cc1 (stereo partly shown) [hbas #3, reference compound]
promotion of aggregation behaviors (C. elegans): active at femtomolar concentrations

CC1O[C@@H](OCCCCC(=O)O)C(O)C[C@H]1O (stereo partly shown) [oscr #9]
SA-induced PR-1 expression (PR-1 [4]; [7]): enhances PR-1 expression induced by SA
PDF1.2 expression in Arabidopsis (PDF1.2): −
resistance to virulent Pst DC3000 [2]: did not significantly enhance resistance

(10R)-(3′R,5′R-dihydroxy-6′S-methyl-(2H)-tetrahydropyran-2-yloxy)-undecanoic Acid [ascr #18]
infection with M. incognita (M. incognita): less effective
infection with H. schachtii (Heterodera schachtii): less effective
